Patent US12617752B2, “Rapidly metabolized lipid compound” (Beijing Jitai Life Sciences Ltd, priority 2023, dated 2026)

Columns and labels:
C57BL/6 mice = assay: In vivo delivery of luciferase mRNA lipid nanoparticles in mice (bioluminescence imaging); settings: intravenous, single dose 0.5 mg/kg luciferase mRNA
Experimental: The delivery effect and safety of nanoparticles encapsulated with luciferase mRNA (Trilink, L-7202) in mice were evaluated. The test mice were SPF-grade C57BL/6 mice, female, 6-8 weeks old, weighing 18-22 g, and were purchased from SPF (Beijing) Biotechnology Co., Ltd. All animals were acclimatized for more than 7 days prior to the experiment, and had free access to food and water during the experiment. The conditions include alternating light and dark for 12/12 h, the indoor temperature of 20-26° C. and the humidity of 40-70%. The mice were randomly grouped. The lipid nanoparticles encapsulated with luciferase mRNA prepared above were injected into mice by intravenous administration at a single dose of 0.5 mg/kg mRNA, and the mice were subjected to in vivo bioluminescence assay using a Small Animal In Vivo Imaging System (IVIS LUMINA III, purchased from PerkinElmer) at 6 h after administration. The assay was performed as follows: D-luciferin solution was prepared in saline at a concentration of 15 mg/mL, and each mouse was given the substrate by intraperitoneal injection. At ten minutes after administration of the substrate, the mice were anesthetized in an anesthesia chamber with isoflurane at a concentration of 2.5%. The anesthetized mice were placed in IVIS for fluorescence imaging, and data acquisition and analysis were performed on the concentrated distribution area of fluorescence.
The in vivo delivery efficiency of lipid nanoparticle carriers was expressed as the mean values of fluorescence intensity and total photon count in different animals within the same subject group, as shown in Table 5-Table 11. Higher values of fluorescence intensity and total photon count indicate higher in vivo delivery efficiency of this mRNA fragment by lipid nanoparticles. The lipid nanoparticles containing the cationic lipids of the present disclosure have good in vivo delivery efficiency.

[1] = Particle size and PDI of lipid nanoparticles by dynamic light scattering; type: physicochemical; settings: lipid nanoparticles with luciferase mRNA; ionizable lipid/cholesterol/DSPC/DMG-PEG2000 50/38.5/10/1.5 mol%
Experimental: (§1) Lipid nanoparticles were prepared by (1) dissolving and mixing ionizable lipid compounds, cholesterol, phospholipids and polyethylene glycolated lipids in ethanol at (molar percentages) 50%, 38.5%, 10% and 1.5%, respectively; (2) dissolving the mRNA active ingredient in 25 mM sodium acetate solution (pH=4.5); (3) using an automated high-throughput microfluidic system to mix the organic phase containing the lipid mixture and the aqueous phase containing the mRNA component in the flow ratio range of 1:1 to 1:4 at a mixing speed of 10 mL/min to 18 mL/min; (4) the prepared lipid nanoparticles (N/P ratio=6) were diluted with phosphate buffer solution and the nanoparticle solutions were ultrafiltered to the original preparation volume using ultrafiltration tubes (purchased from Millipore) with a cut-off molecular weight of 30 kDa; and (5) the obtained nanoparticles were filtered through a sterile 0.2 μm filter membrane and then stored in a sealed glass vial at low temperature.
(§2) The particle size and particle size dispersity index (PDI) of the prepared lipid nanoparticles were measured using a Zetasizer Pro (purchased from Malvern Instruments Ltd) and a DynaPro NanoStar (purchased from Wyatt) dynamic light scattering instrument. The degree of RNA encapsulation by lipid nanoparticles was characterized by the Encapsulation Efficiency %, which reflects the degree of binding of lipid nanoparticles to RNA fragments. This parameter was measured by the method of Quant-it™ RiboGreen RNA Assay (purchased from Invitrogen). Lipid nanoparticle samples were diluted in TE buffer (10 mM Tris-HCl, 1 mM EDTA, pH=7.5). A portion of the sample solution was removed, to which 0.5% Triton (Triton X-100) was added, and then allowed to stand at 37° C. for 30 minutes. Immediately after the addition of RIBOGREEN® reaction solution, the fluorescence values were read on a Varioskan LUX multifunctional microplate reader (purchased from Thermofisher) at 485 nm for absorption and 528 nm for emission to give the encapsulation efficiency values.

[2] = Encapsulation efficiency of lipid nanoparticles (Quant-it RiboGreen RNA Assay); type: physicochemical; settings: lipid nanoparticles with luciferase mRNA
Experimental: as §1, §2

Particle size (nm) [1] | Particle-size distribution (PDI) [1] | Encapsulation efficiency (%) [2] | SMILES | Total photon count in vivo at 6 hours after administration (Total Flux) (C57BL/6 mice)
104.85 nm | 0.021 | 85.24% | CCCCCCCCCCCOC(=O)CCCCCN(CCCCO)CCCCCCC(C)(C)C(=O)OC(CCCCCCCC)CCCCCCCC [12a] | 1.39E+10
110.20 nm | 0.018 | 92.96% | CCCCCCCCCCCOC(=O)CCCCCN(CCO)CCCCCCC1(C(=O)OC(CCCCCCCC)CCCCCCCC)CC1 [13a] | 5.01E+10
99.73 nm | 0.013 | 83.54% | CCCCCCCCCC(=O)OCC1(CCCCCN(CCO)CCCCCCCC(=O)OC(CCCCCCCC)CCCCCCCC)CC1 [14b] | 1.05E+11
120.27 nm | 0.015 | 69.69% | CCCCCCCCCC(=O)OCC1(CCCCCN(CCCCO)CCCCCCCC(=O)OC(CCCCCCCC)CCCCCCCC)CC1 [15b] | 8.22E+10
101.90 nm | 0.028 | 89.09% | CCCCCCCCCCC(=O)OCC(C)(C)CCCCCN(CCO)CCCCCCCC(=O)OC(CCCCCCCCC)CCCCCCCCC [16b] | 1.28E+11
109.87 nm | 0.030 | 87.72% | CCCCCCCCCCC(=O)OCC(C)(C)CCCCCN(CCCCO)CCCCCCCC(=O)OC(CCCCCCCCC)CCCCCCCCC [17b] | 1.74E+11
100.46 nm | 0.037 | 89.34% | CCCCCCCCCCOC(=O)CCCCCCCN(CCO)CCCCCC(C)(C)COC(=O)C(CCCCCCCC)CCCCCCCC [18b] | 3.91E+10
109.37 nm | 0.035 | 87.90% | CCCCCCCCCCCOC(=O)CCCCCN(CCO)CCCCCC(C)(C)CC(=O)OC(CCCCCCCC)CCCCCCCC [19a] | 4.73E+10
109.53 nm | 0.036 | 83.01% | CCCCCCCCCCOC(=O)CCCCCCCN(CCO)CCCCCC(C)(C)COC(=O)CC(CCCCCCC)CCCCCCC [19b] | 6.13E+10
107.83 nm | 0.032 | 87.69% | CCCCCCCCCCOC(=O)CCCCCCCN(CCO)CCCCCC(C)(C)COC(=O)CCC(CCCCCC)CCCCCC [20b] | 4.82E+10
110.00 nm | 0.016 | 88.37% | CCCCCCCCC(CCCCCCCC)OC(=O)C(C)(C)CCCCCCN(CCO)CCCCCC(=O)OCCCCCCCCCC(C)C [21a] | 8.84E+10
94.58 nm | 0.051 | 92.37% | CCCCCCCCCCC(=O)OCC1(CCCCCN(CCO)CCCCCCCC(=O)OC(CCCCCCCCC)CCCCCCCCC)CC1 [21b] | 4.95E+10
99.48 nm | 0.010 | 97.25% | CCCCCCCCCCCOC(=O)CCCCCN(CCO)CCCCCCC1(C(=O)OC(CCCCCCCC)CCCCCCCC)CCCC1 [22a] | 1.74E+10
99.25 nm | 0.011 | 96.30% | CCCCCCCCCCOC(=O)CCCCCN(CCO)CCCCCCC(C)(C)C(=O)OC(CCCCCCC)CCCCCCC [23a] | 9.84E+10
115.70 nm | 0.031 | 93.14% | CCCCCCCCCC(=O)OCC1(CCCCCN(CCO)CCCCCCCC(=O)OCCC(CCCCCC)CCCCCC)CC1 [23b] | 3.92E+10
109.53 nm | 0.052 | 88.89% | CCCCCCCCCCCCOC(=O)CCCCCN(CCO)CCCCCCC(C)(C)C(=O)OC(CCCCCCCCC)CCCCCCCCC [24a] | 3.07E+10

Further lines, the compound ahead of its results:

SMILES | Particle size (nm) [1] | Particle-size distribution (PDI) [1] | Encapsulation efficiency (%) [2] | Total photon count in vivo at 6 hours after administration (Total Flux) (C57BL/6 mice)
CCCCCCCCCC(=O)OCC(C)(C)CCCCCN(CCCO)CCCCCCCC(=O)OC(CCCCCCCC)CCCCCCCC [2b] | 104.61 nm | 0.013 | 80.17% | 8.31E+10
CCCCCCCCCCCOC(=O)CCCCCN(CCO)CCCCCCC(C)(C)C(=O)OC(CCCCCCCC)CCCCCCCC [3a] | 89.72 nm | 0.021 | 94.23% | 1.03E+11
CCCCCCCCCOC(=O)CCCCCCCN(CCO)CCCCCCC1(C(=O)OC(CCCCCCCC)CCCCCCCC)CC1 [6a] | 90.67 nm | 0.018 | 87.22% | 2.88E+10
CCCCCCCCCC(=O)OCCCCCCCN(CCO)CCCCCCC(C)(C)C(=O)OC(CCCCCCCC)CCCCCCCC [6b] | 99.55 nm | 0.029 | 80.01% | 7.42E+10
CCCCCCCCCOC(=O)CCCCCCCN(CCO)CCCCCCC(C)(C)C(=O)OCCC(CCCCCC)CCCCCC [7a] |  |  |  | 5.26E+10
CCCCCCCCC(CCCCCCCC)OC(=O)C(C)(C)CCCCCCN(CCO)CCCCCCCOC(=O)CCCC(CCCCC)CCCCC [7b] | 101.67 nm | 0.030 | 88.68% | 2.00E+10
CCCCCCCCCOC(=O)CCCCCCCN(CCO)CCCCCC(C)(C)CC(=O)OC(CCCCCCCC)CCCCCCCC [9a] | 103.03 nm | 0.031 | 89.64% | 2.06E+10
CCCCCCCCCOC(=O)CCCCCCCN(CCO)CCCC(C)(C)CCC(=O)OC(CCCCCCCC)CCCCCCCC [10a] | 131.09 nm | 0.032 | 89.69% | 7.08E+10
CCCCCCCCCCCOC(=O)CCCCCN(CCCO)CCCCCCC(C)(C)C(=O)OC(CCCCCCCC)CCCCCCCC [11a] | 98.01 nm | 0.021 | 89.36% | 2.05E+10
CCCCCCCCCCCOC(=O)CCCCCN(CCO)CCCCCCC(C)(C)C(=O)OCC(CCCCCCC)CCCCCCC [14a] | 90.99 nm | 0.012 | 91.67% | 1.09E+11
CCCCCCCCCCCOC(=O)CCCCCN(CCO)CCCCCCC(C)(C)C(=O)OCCC(CCCCCC)CCCCCC [15a] | 95.94 nm | 0.021 | 90.77% | 4.15E+10
